Experimental data published in patent US9493486B2, “Diazaspirocycloalkane and azaspirocycloalkane” (Hoffmann-La Roche Inc., priority 2012, dated 2016).

Molecular target: ATX (human His-tagged) (Homo sapiens (Human), UniProt Q13822)
Test: Human ATX enzyme inhibition assay (fluorescence quenching, MR121 substrate)
Assay type: biochemical
Settings: 30 nM ATX, 1 μM MR121 substrate, 30° C.
Text: Human ATX Enzyme Inhibition Assay
Assay working solutions were made as follows:

Structure (SMILES) | IC50
O=C(OCc1cc(Cl)cc(Cl)c1)N1CCC2(CC1)CN(Cc1ccc3[nH]c(=O)oc3c1)C2 [Example 4, 3,5-Dichlorobenzyl 2-((2-oxo-2,3-dihydro-benzo[d]oxazol-6-yl)methyl)-2,7-diaza-spiro[3.5]nonane-7-carboxylate] | 546 nM
Nc1ccc(C(=O)N2CC3(CCN(C(=O)CCc4cc(Cl)cc(Cl)c4)CC3)C2)cc1O [Example 1.05, 1-(2-(4-amino-3-hydroxybenzoyl)-2,7-diazaspiro[3.5]nonan-7-yl)-3-(3,5-dichlorophenyl)propan-1-one] | 1040 nM
O=C(OCc1ccc(Cl)c(F)c1)N1CCC2(CC1)CN(C(=O)c1ccc3[nH]nnc3c1)C2 [Example 12, 4-Chloro-3-fluorobenzyl 2-(1H-benzo[d][1,2,3]triazole-5-carbonyl)-2,7-diazaspiro[3.5]nonane-7-carboxylate] | 130 nM
O=C(OCc1cc(Cl)cc(Cl)c1)N1CCC2(CCN(C(=O)c3ccc4[nH]nnc4c3)CC2)C1 [Example 1.19, 3,5-dichlorobenzyl 8-(1H-benzo[d][1,2,3]triazole-5-carbonyl)-2,8-diazaspiro[4.5]decane-2-carboxylate] | 39.5 nM
O=C(OCc1ccccc1)N1CC2(CC(NS(=O)(=O)c3ccc4[nH]c(=O)oc4c3)C2)C1 [Example 3.2, benzyl 6-(2-oxo-2,3-dihydrobenzo[d]oxazole-6-sulfonamido)-2-azaspiro[3.3]heptane-2-carboxylate] | 298 nM
O=C(CCc1ccc(OC(F)(F)F)cc1)N1CCC2(CC1)CN(C(=O)C1CCc3[nH]nnc3C1)C2 (centres unmarked) [Example 1.28, 1-(2-(4,5,6,7-tetrahydro-1H-benzo[d][1,2,3]triazole-5-carbonyl)-2,7-diazaspiro[3.5]nonan-7-yl)-3-(4-(trifluoromethoxy)phenyl)propan-1-one] | 110 nM
O=C(CCc1cc(Cl)cc(Cl)c1)N1CCC2(CC1)CN(C(=O)c1ccc3[nH]nnc3c1)C2 [Example 1.04, 1-(2-(1H-benzo[d][1,2,3]triazole-5-carbonyl)-2,7-diazaspiro[3.5]nonan-7-yl)-3-(3,5-dichlorophenyl)propan-1-one] | 115 nM
CC(C)c1cc(Cl)ccc1OCC(=O)N1CCC2(CC1)CN(C(=O)c1ccc3[nH]nnc3c1)C2 [Example 1.26, 1-(2-(1H-benzo[d][1,2,3]triazole-5-carbonyl)-2,7-diazaspiro[3.5]nonan-7-yl)-2-(4-chloro-2-isopropylphenoxy)ethanone] | 8 nM
Nc1ccc(C(=O)N2CC3(CCN(C(=O)OCc4cc(Cl)cc(Cl)c4)CC3)C2)cc1O [Example 1.06, 3,5-dichlorobenzyl 2-(4-amino-3-hydroxybenzoyl)-2,7-diazaspiro[3.5]nonane-7-carboxylate] | 107 nM
O=C(OCc1cc(Cl)cc(Cl)c1)N1CCC2(CC1)CN(S(=O)(=O)c1ccc3[nH]c(=O)oc3c1)C2 [Example 3, 3,5-Dichlorobenzyl 2-(2-oxo-2,3-dihydro-benzo[d]oxazol-6-ylsulfonyl)-2,7-diazaspiro[3.5]nonane-7-carboxylate] | 6 nM
CC(C)c1cc(C#N)ccc1OCC(=O)N1CCC2(CC1)CN(C(=O)C1CCc3[nH]nnc3C1)C2 (centres unmarked) [Example 1.25, 3-isopropyl-4-(2-oxo-2-(2-(4,5,6,7-tetrahydro-1H-benzo[d][1,2,3]triazole-5-carbonyl)-2,7-diazaspiro[3.5]nonan-7-yl)ethoxy)benzonitrile] | 74 nM
NS(=O)(=O)c1ccc(C(=O)N2CC3(CCN(C(=O)OCc4ccc(OC(F)(F)F)cc4)CC3)C2)cc1 [Example 1.22, 4-(trifluoromethoxy)benzyl 2-(4-sulfamoylbenzoyl)-2,7-diazaspiro[3.5]nonane-7-carboxylate] | 15 nM

Next, values leading:

IC50 | Structure (SMILES)
53 nM | CS(=O)(=O)c1cc(COC(=O)N2CCC3(CC2)CN(C(=O)c2ccc4[nH]c(=O)oc4c2)C3)cc(C(F)(F)F)c1 [Example 12.26, 3-(methylsulfonyl)-5-(trifluoromethyl)benzyl 2-(2-oxo-2,3-dihydrobenzo[d]oxazole-6-carbonyl)-2,7-diazaspiro[3.5]nonane-7-carboxylate]
3830 nM | O=C(OCc1cncc(Cl)c1)N1CCC2(CC1)CN(C(=O)c1ccc3[nH]nnc3c1)C2 [Example 12.08, (5-chloropyridin-3-yl)methyl 2-(1H-benzo[d][1,2,3]triazole-5-carbonyl)-2,7-diazaspiro[3.5]nonane-7-carboxylate]
1250 nM | O=C(NC1CC2(C1)CN(C(=O)OCc1ccc(F)c(Cl)c1)C2)c1ccc2[nH]nnc2c1 [Example 12.21, 6-[(1H-benzotriazole-5-carbonyl)-amino]-2-aza-spiro[3.3]heptane-2-carboxylic acid 3-chloro-4-fluoro-benzyl ester]
2 nM | O=C(OCc1ccc(OC(F)(F)F)cc1F)N1CC2(CCN(C(=O)C3CCc4[nH]nnc4C3)CC2)C1 (centres unmarked) [Example 12.41, 2-fluoro-4-(trifluoromethoxy)benzyl 7-(4,5,6,7-tetrahydro-1H-benzo[d][1,2,3]triazole-5-carbonyl)-2,7-diazaspiro[3.5]nonane-2-carboxylate]
3220 nM | O=C(c1ccc2[nH]nnc2c1)N1CC2(CCN(C(=O)[C@@H]3C[C@H]3c3cc(F)cc(F)c3)CC2)C1 (relative stereo) [Example 6.5, (2-(1H-benzo[d][1,2,3]triazole-5-carbonyl)-2,7-diazaspiro[3.5]nonan-7-yl)(trans-2-(3,5-difluorophenyl)cyclopropyl)methanone]
53.5 nM | O=C(NC1CC2(C1)CN(C(=O)OCc1cc(Cl)cc(OC(F)(F)F)c1)C2)c1ccc2[nH]nnc2c1 [Example 12.18, 6-[(1H-benzotriazole-5-carbonyl)-amino]-2-aza-spiro[3.3]heptane-2-carboxylic acid 3-chloro-5-trifluoromethoxy-benzyl ester]
44 nM | O=C(OCc1ccc(Cl)c(Cl)c1)N1CCC2(CC1)CN(C(=O)c1ccc3[nH]nnc3c1)C2 [Example 12.02, 3,4-dichlorobenzyl 2-(1H-benzo[d][1,2,3]triazole-5-carbonyl)-2,7-diazaspiro[3.5]nonane-7-carboxylate]
39 nM | CS(=O)(=O)c1cc(COC(=O)N2CCC3(CC2)CN(S(=O)(=O)c2ccc4[nH]c(=O)oc4c2)C3)cc(C(F)(F)F)c1 [Example 12.45, 3-(methylsulfonyl)-5-(trifluoromethyl)benzyl 2-(2-oxo-2,3-dihydrobenzo[d]oxazol-6-ylsulfonyl)-2,7-diazaspiro[3.5]nonane-7-carboxylate]
5 nM | O=C(OCc1ccc(OCC(F)(F)F)cc1)N1CCC2(CC1)CN(C(=O)C1CCc3nn[nH]c3C1)C2 (centres unmarked) [Example 12.39, 4-(2,2,2-trifluoroethoxy)benzyl 2-(4,5,6,7-tetrahydro-1H-benzo[d][1,2,3]triazole-6-carbonyl)-2,7-diazaspiro[3.5]nonane-7-carboxylate]
2660 nM | O=C(c1cc(Cl)cc(Cl)c1)N1CCC2(CC1)CN(C(=O)c1ccc3[nH]nnc3c1)C2 [Example 6.3, (2-(1H-benzo[d][1,2,3]triazole-5-carbonyl)-2,7-diazaspiro[3.5]nonan-7-yl)(3,5-dichlorophenyl)methanone]
26.5 nM | O=C(NC1CC2(C1)CN(C(=O)OCc1cc(Cl)cc(Cl)c1)C2)c1ccc2[nH]c(=O)oc2c1 [Example 5.2, 6-[(2-oxo-2,3-dihydro-benzooxazole-6-carbonyl)-amino]-2-aza-spiro[3.3]heptane-2-carboxylic acid 3,5-dichloro-benzyl ester]
